Measurements from US8129419B2, “Microbicidal composition” (Rohm and Haas Company, priority 2007, dated 2012).
Several values for one entry are separate records, joined by “and”; a condition that tells them apart may be missing. Identical values can stand only once.

Key:
Assay type in all cases: cell-based
S. aureus ATCC#6538 = assay: Synergy test: microtiter plate high resolution MIC assay, M9GY medium, 30° C.; conditions: for Cb: ppm AI of MBIT alone (MIC end-point, QB): Table 6; for MIC of the microbicide acting alone (Ca or Cb; QA/QB): S. aureus, single component
Text: (§1) One measure of synergism is the industrially accepted method described by Kull, F. C.; Eisman, P. C.; Sylwestrowicz, H. D. and Mayer, R. L., in Applied Microbiology 9:538-541 (1961), using the ratio determined by the formula: Qa/QA+Qb/QB=Synergy Index(“SI”) wherein: • QA=concentration of compound A (first component) in ppm, acting alone, which produced an end point (MIC of Compound A). • Qa=concentration of compound A in ppm, in the mixture, which produced an end point. • QB=concentration of compound B (second component) in ppm, acting alone, which produced an end point (MIC of Compound B). • Qb=concentration of compound B in ppm, in the mixture, which produced an end point.
(§2) When the sum of Qa/QA and Qb/QB is greater than one, antagonism is indicated. […] The lower the SI, the greater the synergy shown by that particular mixture. The minimum inhibitory concentration (MIC) of a microbicide is the lowest concentration tested under a specific set of conditions that prevents the growth of added microorganisms.
(§3) Synergy tests were conducted using standard microtiter plate assays with media designed for optimal growth of the test microorganism. Minimal salt medium supplemented with 0.2% glucose and 0.1% yeast extract (M9GY medium) was used for testing bacteria; Potato Dextrose Broth (PDB medium) was used for testing yeast and mold. In this method, a wide range of combinations of microbicides was tested by conducting high resolution MIC assays in the presence of various concentrations of MBIT. High resolution MICs were determined by adding varying amounts of microbicide to one column of a microtitre plate and doing subsequent […] dilutions using an automated liquid handling system to obtain a series of endpoints ranging from 2 ppm to 10,000 ppm active ingredient.
(§4) The synergy of the combinations of the present invention was determined against several microorganisms, as described in the Tables below. The bacteria were used at a concentration of about 5×10^6 bacteria per mL and the yeast and mold at 5×10^5 fungi per mL. These microorganisms are representative of natural contaminants in many consumer and industrial applications. […] (yeast and mold) or 30° C. (bacteria).
(§5) In each test, Second Component (B) was MBIT and the First Component (A) was the other commercial microbicide.

Ps. aeruginosa ATCC#9027 = assay: as above; conditions: for MIC of the microbicide acting alone (Ca or Cb; QA/QB): Ps. aeruginosa, single component
Text: as §1, §2, §3, §4, §5

A. niger ATCC # 16404 = assay: Synergy test: microtiter plate high resolution MIC assay, PDB medium, 25° C.; conditions: for MIC of the microbicide acting alone (Ca or Cb; QA/QB): A. niger, single component
Text: as §1, §2, §3, §4, §5

C. albicans ATCC # 10231 = assay: as above; conditions: for MIC of the microbicide acting alone (Ca or Cb; QA/QB): C. albicans, single component
Text: as §1, §2, §3, §4, §5

[1] = contact time 24 hrs, MBIT alone (QB) or in mixture with ACQ C2 (Qb)
[2] = contact time 24 hrs, MBIT alone (QB) or in mixture with ACQ type D (Qb)
[3] = contact time 48 hrs, MBIT alone (QB) or in mixture with ACQ C2 (Qb)
[4] = contact time 48 hrs, MBIT alone (QB) or in mixture with ACQ type D (Qb)

Cn1sc2ccccc2c1=O [MBIT, N-methyl-1,2-benzisothiazolin-3-one]
Cb: ppm AI of MBIT alone (MIC end-point, QB) (S. aureus ATCC#6538; S. aureus ATCC#6538, contact time 24 hrs): 15 ppm
Cb: ppm AI of MBIT alone (MIC end-point, QB) (S. aureus ATCC#6538; S. aureus ATCC#6538, contact time 48 hrs): 15 ppm
MIC of the microbicide acting alone (Ca or Cb; QA/QB) (S. aureus ATCC#6538; contact time 24 hrs): 15 ppm AI
MIC of the microbicide acting alone (Ca or Cb; QA/QB) (S. aureus ATCC#6538; contact time 48 hrs): 15 ppm AI
MIC of the microbicide acting alone (Ca or Cb; QA/QB) (S. aureus ATCC#6538; second block of Table 4, contact time not given): 15 ppm AI
Cb: ppm AI of MBIT at MIC end point (S. aureus ATCC#6538; [1]): 15 ppm
Cb: ppm AI of MBIT at MIC end point (S. aureus ATCC#6538; [2]): 15 ppm
Cb: ppm AI of MBIT at MIC end point (S. aureus ATCC#6538; [3]): 15 ppm
Cb: ppm AI of MBIT at MIC end point (S. aureus ATCC#6538; [4]): 15 ppm
Cb: ppm AI of MBIT alone (MIC end-point, QB) (Ps. aeruginosa ATCC#9027; Ps. aeruginosa ATCC#9027, contact time 24 hrs, alone, Table 6): 125 ppm
MIC of the microbicide acting alone (Ca or Cb; QA/QB) (Ps. aeruginosa ATCC#9027; contact time 24 hrs): 125 ppm AI
MIC of the microbicide acting alone (Ca or Cb; QA/QB) (Ps. aeruginosa ATCC#9027; contact time 48 hrs): 125 ppm AI
Cb: ppm AI of MBIT at MIC end point (Ps. aeruginosa ATCC#9027; [1]): 75 ppm
Cb: ppm AI of MBIT at MIC end point (Ps. aeruginosa ATCC#9027; [2]): 75 ppm
Cb: ppm AI of MBIT at MIC end point (Ps. aeruginosa ATCC#9027; [3]): 125 ppm
Cb: ppm AI of MBIT at MIC end point (Ps. aeruginosa ATCC#9027; [4]): 125 ppm
Cb: ppm AI of MBIT alone (MIC end-point, QB) (A. niger ATCC # 16404; A. niger ATCC # 16404, contact time 3 days, Table 6): 37.5 ppm
Cb: ppm AI of MBIT alone (MIC end-point, QB) (A. niger ATCC # 16404; A. niger ATCC # 16404, contact time 3 days, Table 7): 37.5 ppm
Cb: ppm AI of MBIT alone (MIC end-point, QB) (A. niger ATCC # 16404; A. niger ATCC # 16404, contact time 3 days, Table 8): 37.5 ppm
Cb: ppm AI of MBIT alone (MIC end-point, QB) (A. niger ATCC # 16404; A. niger ATCC # 16404, contact time 7 days, Table 6): 37.5 ppm
Cb: ppm AI of MBIT alone (MIC end-point, QB) (A. niger ATCC # 16404; A. niger ATCC # 16404, contact time 7 days, Table 7): 75 ppm
Cb: ppm AI of MBIT alone (MIC end-point, QB) (A. niger ATCC # 16404; A. niger ATCC # 16404, contact time 7 days, Table 8): 75 ppm
MIC of the microbicide acting alone (Ca or Cb; QA/QB) (A. niger ATCC # 16404; contact time 3 days): 37.5 ppm AI
MIC of the microbicide acting alone (Ca or Cb; QA/QB) (A. niger ATCC # 16404; contact time 7 days): 37.5 ppm AI and 75 ppm AI
Cb: ppm AI of MBIT at MIC end point (A. niger ATCC # 16404; contact time 3 days, MBIT alone (QB) or in mixture with ACQ C2 (Qb)): 37.5 ppm
Cb: ppm AI of MBIT at MIC end point (A. niger ATCC # 16404; contact time 3 days, MBIT alone (QB) or in mixture with ACQ type D (Qb)): 37.5 ppm
Cb: ppm AI of MBIT at MIC end point (A. niger ATCC # 16404; contact time 7 days, MBIT alone (QB) or in mixture with ACQ C2 (Qb)): 37.5 ppm
Cb: ppm AI of MBIT at MIC end point (A. niger ATCC # 16404; contact time 7 days, MBIT alone (QB) or in mixture with ACQ type D (Qb)): 75 ppm
Cb: ppm AI of MBIT alone (MIC end-point, QB) (C. albicans ATCC # 10231; C. albicans ATCC # 10231, contact time 48 hrs, Table 6): 30 ppm
Cb: ppm AI of MBIT alone (MIC end-point, QB) (C. albicans ATCC # 10231; C. albicans ATCC # 10231, contact time 48 hrs, Table 7): 30 ppm
Cb: ppm AI of MBIT alone (MIC end-point, QB) (C. albicans ATCC # 10231; C. albicans ATCC # 10231, contact time 48 hrs, Table 8): 30 ppm
Cb: ppm AI of MBIT alone (MIC end-point, QB) (C. albicans ATCC # 10231; C. albicans ATCC # 10231, contact time 72 hrs, Table 6): 30 ppm
Cb: ppm AI of MBIT alone (MIC end-point, QB) (C. albicans ATCC # 10231; C. albicans ATCC # 10231, contact time 72 hrs, Table 7): 30 ppm
Cb: ppm AI of MBIT alone (MIC end-point, QB) (C. albicans ATCC # 10231; C. albicans ATCC # 10231, contact time 72 hrs, Table 8): 30 ppm
MIC of the microbicide acting alone (Ca or Cb; QA/QB) (C. albicans ATCC # 10231; contact time 48 hrs): 30 ppm AI
MIC of the microbicide acting alone (Ca or Cb; QA/QB) (C. albicans ATCC # 10231; contact time 72 hrs): 30 ppm AI and 60 ppm AI
Cb: ppm AI of MBIT at MIC end point (C. albicans ATCC # 10231; [3]): 60 ppm
Cb: ppm AI of MBIT at MIC end point (C. albicans ATCC # 10231; [4]): 30 ppm
Cb: ppm AI of MBIT at MIC end point (C. albicans ATCC # 10231; contact time 72 hrs, MBIT alone (QB) or in mixture with ACQ C2 (Qb)): 60 ppm
Cb: ppm AI of MBIT at MIC end point (C. albicans ATCC # 10231; contact time 72 hrs, MBIT alone (QB) or in mixture with ACQ type D (Qb)): 60 ppm

CCCCCCCCCCCC(=O)N[C@@H](CCCN=C(N)N)C(=O)OCC.Cl [CYTO GUARD LA, ethyl lauroyl arginate hydrochloride]
MIC of the microbicide acting alone (Ca or Cb; QA/QB) (S. aureus ATCC#6538; contact time 24 hrs): 2.125 ppm AI
MIC of the microbicide acting alone (Ca or Cb; QA/QB) (S. aureus ATCC#6538; contact time 48 hrs): 2.625 ppm AI
MIC of the microbicide acting alone (Ca or Cb; QA/QB) (Ps. aeruginosa ATCC#9027; contact time 48 hrs): 42.5 ppm AI
MIC of the microbicide acting alone (Ca or Cb; QA/QB) (A. niger ATCC # 16404; contact time 3 days): 110 ppm AI
MIC of the microbicide acting alone (Ca or Cb; QA/QB) (A. niger ATCC # 16404; contact time 7 days): 110 ppm AI
MIC of the microbicide acting alone (Ca or Cb; QA/QB) (C. albicans ATCC # 10231; contact time 48 hrs): 87.5 ppm AI
MIC of the microbicide acting alone (Ca or Cb; QA/QB) (C. albicans ATCC # 10231; contact time 72 hrs): 87.5 ppm AI

cocamidopropyl-N-2-hydroxyethylcarbamoyl methyl dimethyl ammonium chloride [MONTALINE C40]
MIC of the microbicide acting alone (Ca or Cb; QA/QB) (S. aureus ATCC#6538; contact time 24 hrs): 5 ppm AI
MIC of the microbicide acting alone (Ca or Cb; QA/QB) (S. aureus ATCC#6538; contact time 48 hrs): 5 ppm AI
MIC of the microbicide acting alone (Ca or Cb; QA/QB) (Ps. aeruginosa ATCC#9027; contact time 24 hrs): 300 ppm AI
MIC of the microbicide acting alone (Ca or Cb; QA/QB) (Ps. aeruginosa ATCC#9027; contact time 48 hrs): 300 ppm AI
MIC of the microbicide acting alone (Ca or Cb; QA/QB) (A. niger ATCC # 16404; contact time 3 days): 650 ppm AI
MIC of the microbicide acting alone (Ca or Cb; QA/QB) (A. niger ATCC # 16404; contact time 7 days): 650 ppm AI
MIC of the microbicide acting alone (Ca or Cb; QA/QB) (C. albicans ATCC # 10231; contact time 48 hrs): 525 ppm AI
MIC of the microbicide acting alone (Ca or Cb; QA/QB) (C. albicans ATCC # 10231; contact time 72 hrs): 1100 ppm AI
